# Where a name gives a salt, the structure may show the parent alone.
# Target: T1, Human α-thrombin (Homo sapiens, UniProt P00734)
# T1 construct: Human α-thrombin; purchased Sigma Chemical Co. or Hematologic Technologies
# Assay: Test A: Determination of Thrombin Inhibition with a Chromogenic, Robotic Assay
# Format: biochemical
# Settings: chromogenic substrate S-2366 0.30 mmol/L, α-thrombin 0.020 NIHU/mL, 40 minutes incubation at 37° C.
# Method: Determination of Thrombin Inhibition with a Chromogenic, Robotic Assay
# The thrombin inhibitor potency is measured with a chromogenic substrate method, in a Plato 3300 robotic microplate processor (Rosys AG, CH-8634 Hombrechtikon, Switzerland), using 96-well, half volume microtitre plates (Costar, Cambridge, Mass., USA; Cat No 3690). Stock solutions of test substance in DMSO (72 μL), 0.1-1 mmol/L, are diluted serially 1:3 (24+48 μL) with DMSO to obtain ten different concentrations, which are analysed as samples in the assay. 2 μL of test sample is diluted with 124 μL assay buffer, 12 μL of chromogenic substrate solution (S-2366, Chromogenix, Mölndal, Sweden) in assay buffer and finally 12 μL of α-thrombin solution (Human α-thrombin, Sigma Chemical Co. or Hematologic Technologies) in assay buffer, are added, and the samples mixed. The final assay concentrations are: test substance 0.00068-133 μmol/L, S-2366 0.30 mmol/L, α-thrombin 0.020 NIHU/mL. The linear absorbance increment during 40 minutes incubation at 37° C. is used for calculation of percentage inhibition for the test samples, as compared to blanks without inhibitor.
row,Molecule,IC50 [nM]
1,"CC(C)(C)C[C@@H](O)C(=O)N1CC2CC1(C(=O)NCc1cc(Cl)ccc1-n1cnnn1)C2 [Example 28, 2-((R)-2-Hydroxy-4,4-dimethyl-pentanoyl)-2-aza-bicyclo[2.1.1]hexane-1-carboxylic acid 5-chloro-2-tetrazol-1-yl-benzylamide]",6
2,"(1S,3S,5S)-2-(4-Hydroxy-1-benzopyran-4-carbonyl)-2-aza-bicyclo[3.1.0]hexane-3-carboxylic acid 5-chloro-2-tetrazol-1-yl-benzylamide [Example 63]",41
3,"O=C([C@H](O)C1CCCCC1)N1CC[C@@H]2C[C@@]21C(=O)NCc1cc(Cl)ccc1-n1cnnn1 [Example 27, (1S,5R)-2-((R)-2-Cyclohexyl-2-hydroxy-acetyl)-2-aza-bicyclo[3.1.0]hexane-1-carboxylic acid-5-chloro-2-tetrazol-1-yl-benzylamide]",7
4,"NC(C(=O)N1[C@H](C(=O)NCc2cc(Cl)ccc2-n2cnnn2)C[C@@H]2C[C@@H]21)c1ccccc1F (stereo partly drawn) [Example 73, (1S,3S,5S)-2-[2-Amino-2-(2-fluoro-phenyl)-acetyl]-2-aza-bicyclo[3.1.0]hexane-3-carboxylic acid 5-chloro-2-tetrazol-1-yl-benzylamide]",8
5,"O=C([C@H](O)CCc1ccccc1)N1CC2CC1(C(=O)NCc1cc(Cl)ccc1-n1cnnn1)C2 [Example 65, 2-((R)-2-Hydroxy-4-phenyl-butyryl)-2-aza-bicyclo[2.1.1]hexane-1-carboxylic acid 5-chloro-2-tetrazol-1-yl-benzylamide]",170
6,"O=C([C@H](O)Cc1ccccc1)N1CC2CC1(C(=O)NCc1cc(Cl)ccc1-n1cnnn1)C2 [Example 29, 2-((R)-2-Hydroxy-3-phenyl-propionyl)-2-aza-bicyclo[2.1.1]hexane-1-carboxylic acid 5-chloro-2-tetrazol-1-yl-benzylamide]",290
7,"O=C(NCc1cc(Cl)ccc1-n1cnnn1)[C@@H]1[C@H]2C[C@H]2CN1C(=O)[C@H](O)c1cccc(Cl)c1 [Example 57, (1S,2S,5R)-3-[(R)-2-(3-Chloro-phenyl)-2-hydroxy-acetyl]-3-aza-bicyclo[3.1.0]hexane-2-carboxylic acid 5-chloro-2-tetrazol-1-yl-benzylamide]",3
8,"N[C@@H](C(=O)N1[C@H](C(=O)NCc2cc(Cl)ccc2-n2cnnn2)C[C@@H]2C[C@@H]21)c1ccccc1 [Example 43, (1S,3S,5S)-2-((R)-2-Amino-2-phenyl-acetyl)-2-aza-bicyclo[3.1.0]hexane-3-carboxylic acid 5-chloro-2-tetrazol-1-yl-benzylamide]",5
9,"CC(C)(C1CC1)C(O)C(=O)N1C[C@H]2C[C@H]2[C@H]1C(=O)NCc1cc(Cl)ccc1-n1cnnn1 (stereo partly drawn) [Example 61, (1R,2S,5S)-3-(3-Cyclopropyl-2-hydroxy-3-methyl-butyryl)-3-aza-bicyclo[3.1.0]hexane-2-carboxylic acid 5-chloro-2-tetrazol-1-yl-benzylamide]",15
10,"O=C(NCc1cc(Cl)ccc1-n1cnnn1)[C@@H]1[C@H]2C[C@H]2CN1C(=O)[C@H](O)c1cc(Cl)cc(OC(F)F)c1 [Example 36, (1S,2S,5R)-3-[2-((R)-3-Chloro-5-difluoromethoxy-phenyl)-2-hydroxy-acetyl]-3-aza-bicyclo[3.1.0]hexane-2-carboxylic acid 5-chloro-2-tetrazol-1-yl-benzylamide]",9
11,"N[C@H](CO)C(=O)N1[C@H](C(=O)NCc2cc(Cl)ccc2-n2cnnn2)C[C@@H]2C[C@@H]21 [Example 49, (1S,3S,5S)-2-((R)-2-Amino-3-hydroxy-propionyl)-2-aza-bicyclo[3.1.0]hexane-3-carboxylic acid 5-chloro-2-tetrazol-1-yl-benzylamide hydrochloride]",450
